From BindingDB's records for doi:10.7270/Q23T9FMP (The Scripps Research Institute Molecular Screening Center, 2007)
Structures can show the parent of a compound that is named as a salt.

Target: Steroidogenic factor 1 (Homo sapiens, UniProt Q13285)
Experiment: activation of SF-1 LBD reporter – cell-based, CHO-K1, Gal4-SF-1 LBD, luciferase luminescence, dose response (AID 692)
[1] = inactive by the depositor's call

Chain of Steroidogenic factor 1 (Q13285 whole entry, the tested form may be a part): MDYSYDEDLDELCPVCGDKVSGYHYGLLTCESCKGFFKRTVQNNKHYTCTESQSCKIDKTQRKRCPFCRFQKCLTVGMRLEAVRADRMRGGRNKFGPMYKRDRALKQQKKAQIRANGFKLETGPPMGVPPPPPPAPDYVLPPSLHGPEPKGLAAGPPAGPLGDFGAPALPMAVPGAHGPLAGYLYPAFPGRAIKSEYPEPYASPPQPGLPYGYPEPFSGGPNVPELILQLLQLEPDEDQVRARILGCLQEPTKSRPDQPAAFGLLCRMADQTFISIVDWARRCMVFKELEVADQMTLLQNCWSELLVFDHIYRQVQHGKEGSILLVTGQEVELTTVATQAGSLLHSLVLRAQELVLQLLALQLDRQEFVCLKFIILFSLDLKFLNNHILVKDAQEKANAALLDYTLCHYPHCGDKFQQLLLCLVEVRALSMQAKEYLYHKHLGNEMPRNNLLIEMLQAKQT

Row | Compound | EC50 [nM] | EC50 [1] [nM]
1 | Cn1c(-c2ccc3c(c2)OCO3)cnc1NCc1ccccc1 [(5-Benzo[1,3]dioxol-5-yl-1-methyl-1H-imidazol-2-yl)-benzyl-amine] | > 11000 | 
2 | CN(C)C=Nc1ncnc2c1cnn2-c1ccc(C(F)(F)F)cn1 [MLS000087855] | > 99000 | 
3 | O=c1c2ccccc2nnn1CSc1nnc(COc2ccc(Cl)cc2)n1Cc1ccco1 [3-[[5-[(4-chloranylphenoxy)methyl]-4-(furan-2-ylmethyl)-1,2,4-triazol-3-yl]sulfanylmethyl]-1,2,3-benzotriazin-4-one] | > 3670 | 
4 | O=c1[nH]c2ccccc2nc1-c1cccs1 [SMR000068248] | 7840 | 
5 | CC1(C)Cc2c(sc(NC(=O)c3ccc(Br)o3)c2C#N)CO1 [5-bromanyl-N-(3-cyano-5,5-dimethyl-4,7-dihydrothieno[2,3-c]pyran-2-yl)furan-2-carboxamide] | > 407 | 
6 | O=C(CNc1ccccc1)Nc1ccc(F)cc1 [2-anilino-N-(4-fluorophenyl)acetamide] |  | 11400
7 | O=C(Nc1ccc(NC(=O)c2cccs2)cn1)c1ccco1 [Furan-2-carboxylic acid {5-[(thiophene-2-carbonyl)-amino]-pyridin-2-yl}-amide] | 5540 | 
8 | O=C(Cc1ccccc1)n1nc(-c2ccccc2)nc1NCc1ccco1 [1-[5-(2-furanylmethylamino)-3-phenyl-1,2,4-triazol-1-yl]-2-phenylethanone] |  | 11300
9 | COc1cc(N2CCCC2)c(OC)cc1C=c1sc2nc3ccccc3n2c1=O [2-(2,5-dimethoxy-4-pyrrolidino-benzylidene)thiazolo[3,2-a]benzimidazol-1-one] | 14600 | 
10 | O=C(Nc1cccc(-c2nnc(-c3ccccc3)o2)c1)c1ccc(Br)o1 [5-bromanyl-N-[3-(5-phenyl-1,3,4-oxadiazol-2-yl)phenyl]furan-2-carboxamide] | 4100 | 
11 | CCN(CC)c1ccc(-n2cc3c(=O)n(C)c(=O)n(C)c3c2)cc1 [6-(4-Diethylamino-phenyl)-1,3-dimethyl-1,6-dihydro-pyrrolo[3,4-d]pyrimidine-2,4-dione] |  | 12400
12 | Cc1cccc(-n2ccnc2SCC(=O)Nc2nccs2)c1 [2-[1-(3-methylphenyl)imidazol-2-yl]sulfanyl-N-(1,3-thiazol-2-yl)acetamide] |  | 10900
13 | O=C(Nc1nccs1)c1ccc(COc2ccc(F)cc2)o1 [5-[(4-fluoranylphenoxy)methyl]-N-(1,3-thiazol-2-yl)furan-2-carboxamide] |  | 11400
14 | CC1(C)CC(=O)C(=CNc2ccccc2)C(=O)C1 [SMR000054233] | 6830 | 
15 | CCOC(=O)N1CCN(S(=O)(=O)c2ccc(C(=O)Nc3sc4c(c3C#N)CCC4)cc2)CC1 [4-[4-[(3-cyano-5,6-dihydro-4H-cyclopenta[b]thiophen-2-yl)carbamoyl]phenyl]sulfonylpiperazine-1-carboxylic acid ethyl ester] | > 1220 | 
16 | Nn1c(SCC(=O)Nc2ccc(F)cc2F)nnc1-c1cccnc1 [2-[(4-amino-5-pyridin-3-yl-1,2,4-triazol-3-yl)sulfanyl]-N-(2,4-difluorophenyl)acetamide] | > 11000 | 
17 | CCc1nc(Nc2ccc3nccnc3c2)c2oc3ccccc3c2n1 [(2-ethylbenzofuro[3,2-d]pyrimidin-4-yl)-quinoxalin-6-yl-amine;hydrochloride] | > 99000 | 
18 | COc1cc(C2c3c(c(O)n(-c4ccccc4)c3O)ON2c2ccccc2)ccc1O (stereo not given) [3-(3-methoxy-4-oxidanyl-phenyl)-2,5-diphenyl-3a,6a-dihydro-3H-pyrrolo[3,4-d][1,2]oxazole-4,6-dione] | 31900 | 

More lines, in order of falling EC50, values ahead:

Row | EC50 [nM] | EC50 [1] [nM] | Compound
19 | 3760 |  | O=C1CCCC(=O)C1=CNc1ccc(O)cc1 [2-[(4-hydroxyanilino)methylidene]cyclohexane-1,3-dione]
20 | 3100 |  | O=C(NCc1ccco1)c1cc2c(s1)CCCCC2 [MLS000065859]
21 | 2890 |  | CC(=N)C(C#N)C(=O)CSc1ccc2c(c1)OCCO2 (stereo not given) [(E)-3-amino-2-[2-(2,3-dihydro-1,4-benzodioxin-6-ylsulfanyl)acetyl]but-2-enenitrile]
22 | 2490 |  | CCCOC(=O)c1ccc(NC(=O)C2CCCO2)cc1 (stereo not given) [4-(tetrahydrofuran-2-carbonylamino)benzoic acid propyl ester]
23 | 2170 |  | CCOC(=O)C1CCN(S(=O)(=O)c2ccc(-c3nc4ccccc4s3)s2)CC1 [1-[[5-(1,3-benzothiazol-2-yl)-2-thienyl]sulfonyl]isonipecotic acid ethyl ester]
24 | 1840 |  | COc1ccc(CNc2ccc(C(=O)O)cc2)cc1 [4-(p-anisylamino)benzoic acid]
25 | 1800 |  | Cc1ccc(-n2c(C)cc(C(=O)COC(=O)c3c(C)noc3C)c2C)cc1 [3,5-dimethyl-4-isoxazolecarboxylic acid [2-[2,5-dimethyl-1-(4-methylphenyl)-3-pyrrolyl]-2-oxoethyl] ester]
26 | 1250 |  | CCOc1ccc(N2C(=O)c3ccccc3C2O)cc1 (stereo not given) [2-(4-ethoxyphenyl)-3-hydroxy-3H-isoindol-1-one]
27 | 1240 |  | Cc1cc(C(=O)OCC(=O)N2CCc3ccccc32)c(C)o1 [2,5-dimethyl-3-furancarboxylic acid [2-(2,3-dihydroindol-1-yl)-2-oxoethyl] ester]
28 | 1210 |  | CCc1nnc(NC(=O)CSc2nc3c(cc2C#N)CCC3)s1 [2-[(3-cyano-1-pyrindan-2-yl)thio]-N-(5-ethyl-1,3,4-thiadiazol-2-yl)acetamide]
29 | 1160 |  | O=C(CSc1ccccn1)c1ccc2c(c1)OCO2 [1-(1,3-benzodioxol-5-yl)-2-(2-pyridinylthio)ethanone]
30 | 989 |  | Cc1ccc(C(=O)Nc2nnc(-c3cccs3)s2)cc1C [3,4-dimethyl-N-(5-thiophen-2-yl-1,3,4-thiadiazol-2-yl)benzamide]
31 | 746 |  | COC(=O)CSc1nc2cc(C)ccc2cc1C#N [(3-Cyano-7-methyl-quinolin-2-ylsulfanyl)-acetic acid methyl ester]
32 | 741 |  | CC(=NC1CCCC1)c1c(C)[nH]n(-c2nc3ccccc3s2)c1=O [(4Z)-2-(1,3-benzothiazol-2-yl)-4-[1-(cyclopentylamino)ethylidene]-5-methylpyrazol-3-one]
33 | 720 |  | O=C(Nc1ccc(CN2CCOCC2)cc1)c1cc2ccccc2o1 [MLS000062478]
34 | 589 |  | COc1ccc(NC(=O)c2ccc3c(c2)OCO3)cc1Cl [MLS000053302]
35 | 543 |  | CCCCC1CCC(c2nc(-c3ccccn3)no2)CC1 (stereo not given) [SMR000105468]
36 | 444 |  | CC(=O)Nc1ccc(-c2cc3ccccc3o2)cc1 [MLS000036584]
37 | 414 |  | Cc1ccc(C(=O)Nc2ncc(Cc3ccc(F)cc3)s2)o1 [5-Methyl-furan-2-carboxylic acid [5-(4-fluoro-benzyl)-thiazol-2-yl]-amide]
38 | 386 |  | CN(C)c1ccc(NC(=O)Nc2cccc(Cl)c2)cc1 [1-(3-chlorophenyl)-3-[4-(dimethylamino)phenyl]urea]
39 | 380 |  | COc1ccc(-c2cn3ccsc3n2)cc1 [6-(4-methoxyphenyl)imidazo[2,1-b][1,3]thiazole]
40 | 138 |  | CC(C)(C)n1ncc2c(=O)n(CC(=O)NCc3ccccc3Cl)cnc21 [2-(1-tert-butyl-4-keto-pyrazolo[3,4-d]pyrimidin-5-yl)-N-(2-chlorobenzyl)acetamide]
